System: desmoglein (corneodesmosomal protein)
Assay: not given
Conditions: shown in EP-A2-0,852,949 (Shiseido); cited from earlier work

Compound | Effect on the degradation of desmoglein (in words)
NCC(=O)O [Glycine, reference compound] | promotes the degradation of desmoglein

System: corneodesmosine
Assay: Degradation of corneodesmosines in acetonic powders of stratum corneum (immunoblotting with antibody G36-19, chemiluminescence)
Format: biochemical, human
Conditions: aqueous solution containing 2% of active agent, pH 8.0, 17 h incubation at 30° C., 33 and 46 kD bands, versus control without active agent
Description: Method for evaluating desquamation by measuring the degradation of corneodesmosines The ability of aminosulfonic derivatives of formula (I) according to the invention to promote desquamation by degradation of corneodesmosines is studied in this example. […] It is studied by immunoblotting after separation by electrophoresis and transfer onto a membrane. […] The nylon-varnish strips associated with the corneocytes are immersed in 1 ml/cm^2 of acetone in order to detach the corneocytes. The mixture is filtered and then rinsed three times with the same volume of acetone in order to remove all trace of varnish. Finally, the mixture is dried under vacuum: acetonic powders of stratum corneum are thus obtained. The acetonic powders are divided into 1 mg aliquots. 100 μl of the aqueous solutions containing 2% of active agent adjusted to pH 8.0 are added. […] Two incubation times are studied: t=0 and t=17 h. In the latter case, the incubation takes place at 30° C. with stirring. After incubation, the mixtures are centrifuged for 10 minutes at 10 000×g. The supernatant is removed and replaced with 100 μl of 0.0625 M Tris/HCl pH 6.8 Laemmli buffer, 2% SDS, 200 mM DTT, 10% glycerol, which allows the proteins to be extracted. The mixture is boiled for 10 minutes at 100° C. and then ground in a Potter mill. The mixture is centrifuged for 10 minutes at 10 000×g and the supernatant is then collected. It contains the corneodesmosomal proteins. The total proteins are assayed according to the Bradford method (Biorad kit). This allows an adjustment to 0.6 mg/ml of the samples and a real comparison of the treatments. The samples and also a Rainbow (Amersham Pharmacia Biotech) low molecular weight standard at 1⁄3 are separated by electrophoresis on gel containing 12% acrylamide for 30 minutes at 100 V and then for 1 hour at 200 V. After the electrophoresis, the proteins are transferred onto an Immobilon-P membrane (Millipore) for 3 hours at 60 V. The membrane is then incubated for twice 15 minutes in TBS-TL buffer: 25 mM Tris, 0.15M NaCi pH 7.2, 0.05% Tween 20, 0.5% skimmed milk powder, in order to block the non-specific sites. Incubation with the antibody [MUT]-19 at 1/12500 is performed overnight at 4° C. After two rinses of 5 minutes in TBS-TL buffer, the membrane is incubated with a goat anti-mouse IG(H+L) antibody peroxidase conjugate (Biorad) at 1/4000 for 1 hour 30 minutes at ambient temperature. After several rinses of 5 minutes in TBS-TL buffer and then TBS buffer (without milk or Tween), the membrane is incubated for 1 minute in 10 ml of ECL reagent (Amersham Pharmacia Biotech). The chemiluminescence of the corneodesmosine bands is measured with the FluorS Multimager (Biorad). The 33 and 46 kD bands are quantified with the Quantity-one software (Biorad). […] This control takes into account the natural degradation of the corneodesmosines which takes place during the incubation.

Compound | Percentage increase in the degradation of corneodesmosine
O=S(=O)(O)CCCN1CCOCC1 [3-Morpholinopropanesulfonic acid, 3-morpholinopropanesulfonic acid] | 39%
O=S(=O)(O)CCN1CCN(CCO)CC1 [4-(2-hydroxyethyl)piperazine-1-ethanesulfonic acid] | 65%
NCC(=O)O [Glycine, reference compound] | 51%
O=S(=O)(O)CCN1CCN(CCS(=O)(=O)O)CC1 [piperazine-1,4-bis(2-ethanesulfonic acid)] | 65%
O=S(=O)(O)CC(O)CN1CCN(CC(O)CS(=O)(=O)O)CC1 (stereo not drawn) [piperazine-1,4-bis(2-hydroxypropanesulfonic acid)] | 63%

Reference: patent US20030232063A1, “Aminosulfonic acid compounds for promoting desquamation of the skin” (SOCIETE L'OREAL S.A., priority 2000, published 2003)
